# Measured values taken from patent EP1175907A1, “REMEDIES” (Takara Shuzo Co, Ltd., priority 1999, dated 2000).
# What was measured:
# Format in all cases: cell-based, human
# [1] = tested on: HL60 cells; assay: HGF mRNA in HL60 cells (RT-PCR); conditions: 10 nM TPA, at any time periods (4 to 10 hours)
# Protocol: HL60 cells (human promyelocytic leukemia cell line) cultured in an RPMI 1640 medium containing 10% fetal bovine serum were suspended in an RPMI 1640 medium containing 1% fetal bovine serum so as to have a concentration of 5 × 10^5 cells/ml, and added into each well of a 6-well cell culture plate in a volume of 2 ml each. Thereafter, 10 nM TPA and 7-12SFd-F prepared in item (3) of Reference Example 2 were added each so as to have a final concentration of 100 µg/ml. Also, the same steps were carried out for the group added with only 7-12SFd-F without adding TPA. The cells were further cultured, and a whole RNA was extracted on Hours 4, 6, 8, and 10. In the extraction of the whole RNA, RNeasy Mini Kit (manufactured by QIAGEN) was used. RT-PCR was carried out entirely in the same manner as that in Example 14, except for changing the cycles for PCR to 32 cycles. After the reaction, the reaction mixture was subjected to electrophoresis on a 2% agarose gel and ethidium bromide staining, and the gel was observed under UV irradiation.
# [2] = tested on: NHDF cells; assay: HGF mRNA in NHDF cells (RT-PCR); conditions: 10 nM TPA, at any time periods (4 to 10 hours)
# Protocol: NHDF cells (normal human dermal fibroblasts) cultured in a DMEM medium containing 10% fetal bovine serum were suspended in the DMEM medium containing 10% fetal bovine serum so as to have a concentration of 2.5 × 10^5 cells/ml, and added into each well of a 6-well cell culture plate in a volume of 2 ml each. The cells were cultured at 37°C for 24 hours in the presence of 5% CO2. Thereafter, the medium was exchanged for a DMEM medium containing 1% fetal bovine serum, and thereto were added 10 nM tetradecanoylphorbol 13-acetate (TPA: manufactured by Gibco BRL) and 7-12SFd-F prepared in item (3) of Reference Example 2 each so as to have a final concentration of 100 µg/ml. Also, the same steps were carried out for the group added with only 7-12SFd-F without adding TPA. The cells were further cultured, and a whole RNA was extracted on Hours 4, 6, 8 and 10. In the extraction of the whole RNA, RNeasy Mini Kit (QIAGEN) was used. RT-PCR was carried out entirely in the same manner as that in Example 14, except for changing the cycles for PCR to 28 cycles. After the reaction, the reaction mixture was subjected to electrophoresis on a 2% agarose gel and ethidium bromide staining, and the gel was observed under UV irradiation.
# [3] = tested on: NHDF cells; assay: HGF in medium and cells of NHDF cells with or without TPA; conditions: 10 nM TPA alone
# [4] = tested on: Hs68 cells; assay: HGF in medium and cells of Hs68 cells with or without TPA; conditions: 10 nM TPA alone
# Protocol: Hs68 cells (human newborn foreskin fibroblasts: manufactured by DAINIPPON PHARMACEUTICAL CO., LTD., ATCC CRL-1635) cultured in a DMEM medium containing 10% fetal bovine serum were suspended in the DMEM medium containing 10% fetal bovine serum so as to have a concentration of 1 × 10^5 cells/ml, and added into each well of a 48-well cell culture plate in a volume of 500 µl each. The cells were cultured for 24 hours. Thereafter, the medium was exchanged for a DMEM medium containing 1% fetal bovine serum, and thereto were added 10 nM TPA and each sample. Also, the same steps were carried out for the group added with only the sample without adding TPA. The medium was collected, and the amount of HGF in the medium was determined by using Quantikine Human Hepatocyte Growth Factor (HGF) ELISA Kit. Further, the cells were washed with PBS, and thereafter dissolved in 500 µl of a cytolytic buffer (50 mM HEPES, pH 7.4; 10 mM EDTA; 0.1% Triton X100; 1 mM PMSF; 1 µg/ml pepstatin A and 1 µg/ml leupeptin). Further, in order to completely dissolve the cells, the mixture was subjected to sonication treatment, and then centrifuged, to give a supernatant (cell extract). The amount of HGF in the cell was determined in the same manner as that of the concentration of HGF in the medium. 7-12SFd-F prepared in item (3) of Reference Example 2 was added so as to have a final concentration of 0.1, 1, 10 or 100 µg/ml. As a negative control, distilled water was added in the same volume as that of the sample. Each experiment was carried out three times, and an average value was taken. In the TPA non-added group, a remarkable production of HGF could not be found. […] In addition, the increase in the amount of HGF when mRNA is increased as described above was very remarkable, as compared to the case where the amount of mRNA is small with no TPA treatment. It was clarified from the above that 7-12SFd-F remarkably promotes the freeing and production of HGF in a case where transcription of mRNA is promoted, so that a large amount of HGF is required.
# [5] = tested on: HL60 cells; assay: HGF in medium and cells of HL60 cells with or without TPA; conditions: 10 nM TPA alone, 24 h
# Protocol: HL60 cells (human promyelocytic leukemia cell line) cultured in an RPMI 1640 medium containing 10% fetal bovine serum were suspended in an RPMI 1640 medium containing 1% fetal bovine serum so as to have a concentration of 5 × 10^5 cells/ml, and added into each well of a 48-well cell culture plate in a volume of 500 µl each. There after, 10 nM TPA was added thereto, and each sample was further added, and the cells were then cultured for 24 hours. Also, the same steps were carried out for the group added with only the sample without adding TPA. The medium was collected, and the amount of HGF in the medium was determined by using the Quantikine Human Hepatocyte Growth Factor (HGF) ELISA Kit. Further, the cells were washed with PBS, and thereafter dissolved in 500 µl of a cytolytic buffer (50 mM HEPES, pH 7.4; 10 mM EDTA; 0.1% Triton X100; 1 mM PMSF; 1 µg/ml pepstatin A and 1 µg/ml leupeptin). Further, in order to completely dissolve the cells, the mixture was subjected to sonication treatment, and then centrifuged, to give a supernatant (cell extract). The amount of HGF in the cells was determined in the same manner as that of the concentration of HGF in the medium. 7-12SFd-F prepared in item (3) of Reference Example 2 was added so as to have a final concentration of 1, 10 or 100 µg/ml. As a negative control, distilled water was added in the same volume as that of the sample. Each experiment was carried out three times, and an average value was taken.
smiles,measurement,setting,value
"CCCCCCCCCCCCCC(=O)O[C@@H]1[C@@H](C)[C@@]2(O)[C@@H](C=C(CO)C[C@]3(O)C(=O)C(C)=C[C@@H]23)[C@@H]2C(C)(C)[C@]12OC(C)=O [TPA, 12-O-tetradecanoylphorbol 13-acetate]",amount of HGF mRNA,[1],remarkably increased
same,amount of HGF mRNA,[2],remarkably increased
same,Amount of HGF in Cells,[3],0.24 ng/Well
same,Amount of HGF in Medium,[3],0.39 ng/Well
same,Total Amount of HGF,[3],0.63 ng/Well
same,Amount of HGF in Cells,[4],155.65 pg/Well
same,Amount of HGF in Medium,[4],65.54 pg/Well
same,Total Amount of HGF,[4],221.19 pg/Well
same,Amount of HGF in Cells,[5],83.37 pg/Well
same,Amount of HGF in Medium,[5],261.60 pg/Well
same,Total Amount of HGF,[5],344.97 pg/Well
